In patent US20240293318A1, “CLEAVABLE LINKER-CONTAINING IONIZABLE LIPIDS AND LIPID CARRIERS FOR THERAPEUTIC COMPOSITIONS” (Flagship Pioneering Innovations VII, LLC, priority 2023, published 2024):

How the values were obtained:
C57BL/6 female mice = assay: In vivo hEPO expression of hEPO mRNA LNPs, serum ELISA; details: LNP 50:38.5:10:1.5, N:P 6, 0.2 mg/kg hEPO mRNA, tail vein injection, blood serum 6 h post-administration
Description: In this example, messenger RNA molecules encoding hEPO proteins were formulated in lipid nanoparticles for delivery in vivo. The lipid nanoparticle (LNP) formulations comprised of a lipid composition of ionizable lipid: helper lipid: cholesterol. DMG-PEG2k at 50:10:38.5:1.5 mol %. The lipid mixture in ethanol was mixed with hEPO mRNA in RNA acidifying buffer (10 mM citrate, pH 4) at an ionizable-lipid-nitrogen-to-RNA-phosphate ratio (N:P) of 6 using a microfluidic device (Precision NanoSystems, Inc.) at a combined flow rate of 10 mL/min (7.5 mL/min for aqueous buffer, RNA and 2.5 mL/min for ethanol, lipid mix). The resulting particles were neutralized by buffer exchange into Dulbecco's phosphate buffer solution via PD-10 desalting column. The neutralized particles were concentrated using 100 kDa AMICON® Ultra centrifugal filters and sterile filtered using 0.2 um syringe filters. Samples were then characterized and diluted as needed (3 replicates).
The in vivo studies were performed in C57BL/6 female mice at 6 to 8 weeks weighing in at approximately 20 g. The LNPs formulated with different ionizable lipids at 0.2 mg/kg of hEPO mRNA were administered by tail vein injection and animals were euthanized at 6 h post-administration for blood serum sample collection. The hEPO levels from the samples were analyzed and cross-compared by enzyme-linked immunoassay (ELISA) according to manufacturer's protocol. The hEPO expression levels for each of the LNPs was compared to a control LNP comprising SM102 (DC Chemicals Cat. No. DC52025). (FIG. 1).

[1] = Zeta potential assay of LNPs; format: physicochemical; details: LNP, hEPO mRNA, Lipid:Cholesterol:DSPC:PEG-2k 50:38.5:10:1.5, N:P 6
Description: (§1) Various lipid nanoparticle compositions comprising a nucleic acid payload are characterized by a variety of methods. For example, dynamic light scattering (DLS) is used to determine particle sizes (Wyatt Dynapro Platereader 111). In addition, instruments such as the Zetasizer Nano ZS (Malvern Instruments Ltd) are used to measure multiple physical properties of a lipid nanoparticle composition, such as particle size, polydispersity index (PDI), and zeta potential. Fluorescence-based assays are used to determine the efficiencies of nucleic acid encapsulation in the lipid nanoparticles. Fluorescence-based assays are used to determine the “apparent pKa” of the lipid nanoparticles. Both fluorescence assays are evaluated on a Varioskanlux plate reader (ThermoScientific).
A Zetasizer Nano ZS (Malvern Instruments Ltd) is used to determine the zeta potential of the nanoparticle compositions. Briefly, a 5 uL aliquot of an approximately 0.5 mg mRNA/mL sample is diluted into 800 uL 0.1×PBS. This sample is then transferred to a disposable conducting cuvette and the zeta potential is measured.

[2] = LNP size and polydispersity index by dynamic light scattering (DLS); format: physicochemical; details: hEPO mRNA, Lipid:Cholesterol:DSPC:PEG-2k 50:38.5:10:1.5, N:P 6
Description: as §1
After formulation and processing of the lipid nanoparticle compositions, the Z-average size of lipid nanoparticle composition are assayed by dynamic light scattering (DLS) (e.g., using a Wyatt Dynapro Platereader III or Malvern Zetasizer ZS). Briefly, an aliquot of 2 uL of the processed nanoparticle composition mixture (at an RNA concentration of approximately 0.5 mg/mL) is diluted into 50 uL phosphate buffered saline (0.1×PBS) and loaded into a 384 well plate. The sample is then analyzed to determine nanoparticle size.
(§2) LNPs were characterized by dynamic light scattering (DLS) measurement for measuring its hydrodynamic radius and polydispersity index (PDI). Encapsulation efficiency (EE %) and total RNA concentration were quantitated using a fluorescence based Ribogreen assay.

[3] = Encapsulation efficiency, fluorescence based Ribogreen assay; format: physicochemical; details: LNP, hEPO mRNA, Lipid:Cholesterol:DSPC:PEG-2k 50:38.5:10:1.5, N:P 6
Description: For lipid nanoparticle formulations containing an RNA, a QUANTIT™ RIBOGREEN® RNA assay (Invitrogen Corporation) is used to evaluate the encapsulation of RNA within the lipid nanoparticle formulation.
The samples are diluted to ˜10 ug/ml in TE buffer. In a 96 well plate, 50 ul of the diluted sample is added to 50 uL TE buffer in duplicates and 20 uL of diluted sample is added to 80 uL Triton X buffer (2% triton in TE buffer) in duplicates. The plate is incubated for 10 minutes at room temperature. Next, RIBOGREEN® is diluted 1:200 in TE BUFFER, and 100 uL is added to each sample well. The fluorescence intensity is measured using a fluorescence plate reader (e.g., Varioskanlux, ThermoScientific) at an excitation wavelength of about 480 nm and an emission wavelength of about 520 nm. The encapsulation efficiency can be determined by using the percentage ratio of non-encapsulated RNA (TE sample) over the total RNA (TX sample), then subtracting from 100 to find the percentage of encapsulated RNA amount.
as §2

[4] = Apparent pKa of LNPs (TNS assay); format: physicochemical; details: LNP, hEPO mRNA, Lipid:Cholesterol:DSPC:PEG-2k 50:38.5:10:1.5, N:P 6
Description: as §1
The apparent pKa of lipid nanoparticle composition is measured using a 6-(p-Toluidino)-2-naphthalenesulfonic acid (TNS) assay. Briefly, lipid nanoparticles (10 uL of approximately 0.5 mg mRNA/mL) and TNS probe (40 uL of 1 mM stock) are added to 750 uL of TNS buffer (25 mM citric acid, 20 mM sodium phosphate, 150 mM NaCl, and 20 mM ammonium acetate), at a pH ranging from 2 to 10. 20 uL of each sample are added to 80 uL of buffer at each pH in a 96-well plate. The plate is incubated for 10 minutes, and the fluorescence signal is measured by means of a spectrofluorometer (Varioskanlux, ThermoScientific) with excitation/emission settings of λex=321 nm, and λem=445 nm. The apparent pKa of the nanoparticle composition is determined by deriving the pH at which 50% of the pH 2 fluorescent signal is present. All datapoints are normalized to the fluorescent signal at pH 2.

SMILES	Zeta [1]	PDI [2]	Size [2]	EE [3]	pKa [4]	hEPO (C57BL/6 female mice)
CCCCCCCCCCCNP(=O)(OCC)OCCCCCN(CCO)CCCCCCCC(=O)OC(CCCCCCCC)CCCCCCCC (centres unmarked) [Lipid 14]	0.9 mV	0.248	101.5 nm	98.3%	6.9	33.98 ng/mL
CCCCCCCCCCCOC(=O)CCN(CCO)CCCCCCCC(=O)OC(CCCCCCCC)CCCCCCCC [Lipid 4]	−9.3 mV	0.103	56.2 nm	97.5%	5.1	0.00 ng/mL
CCCCCCCCCNP(=O)(OCC)OCCCCCN(CCO)CCCCCCCC(=O)OC(CCCCCCCC)CCCCCCCC (centres unmarked) [Lipid 16]	−0.4 mV	0.116	91.6 nm	88.1%	7.0	79.22 ng/mL
CCCCCCCCCCCOP(=O)(NCCCCCN(CCO)CCCCCCCC(=O)OC(CCCCCCCC)CCCCCCCC)OCC (centres unmarked) [Lipid 9]	–	–	–	–	7.0	184.44 ng/mL
CCCCCCCCCCOP(=O)(NCCCCCN(CCO)CCCCCCCC(=O)OC(CCCCCCCC)CCCCCCCC)OCC (centres unmarked) [Lipid 10]	0.8 mV	0.064	85.6 nm	99.6%	7.2	90.05 ng/mL
CCCCCCCCCCNP(=O)(OCC)OCCCCCN(CCO)CCCCCCCC(=O)OC(CCCCCCCC)CCCCCCCC (centres unmarked) [Lipid 15]	0.2 mV	0.165	83.1 nm	94.8%	7.0	123.69 ng/mL
CCCCCCCCC(CC)OC(=O)CCCCCCCN(CCCCCCCC(=O)OC(CCCCCCCC)CCCCCCCC)CCCNS(=O)(=O)NC (centres unmarked) [Lipid 19]	−27.6 mV	0.183	60.9 nm	96.9%	6.3	1014.79 ng/mL
CCCCCCCCC(CC)OC(=O)CCCCCCCN(CCCCCCCC(=O)OC(CCCCCCCC)CCCCCCCC)CCCn1nc(N)cc1N (centres unmarked) [Lipid 18]	−12.8 mV	0.079	67.2 nm	98.9%	6.5	386.98 ng/mL
CCCCCCCCCOP(=O)(NCCCCCN(CCO)CCCCCCCC(=O)OC(CCCCCCCC)CCCCCCCC)OCC (centres unmarked) [Lipid 11]	2.6 mV	0.08	94.4 nm	99.7%	7.3	63.81 ng/mL
CCCCCCCCCCCCOC(=O)CCN(CCO)CCCCCCCC(=O)OC(CCCCCCCC)CCCCCCCC [Lipid 3]	−9.2 mV	0.48	62.8 nm	97.6%	5.1	0.00 ng/mL
CCCCCCCCCNP(=O)(OCCCCCCCCC)OCCCCCCCN(CCO)CCCCCOP(=O)(NCCCCCCCCC)OCCCCCCCCC (centres unmarked) [Lipid 13]	2.4 mV	0.108	67.1 nm	96.7%	7.8	49.71 ng/mL
CCCCCCCCCCCNP(=O)(OCC)OCCCCCN(CCO)CCCCCCCOP(=O)(NCCCCCCCCC)OCCCCCCCCC (centres unmarked) [Lipid 12]	3.5 mV	0.316	87.6 nm	99.3%	8.3	0.00 ng/mL
CCCCCCCCC(CC)OC(=O)CCCCCCCN(CCCCCCCC(=O)OC(CCCCCCCC)CCCCCCCC)CCCNc1cc(N)n[nH]1 (centres unmarked) [Lipid 22]	−15.3 mV	0.159	62.7 nm	99.9%	5.8	78.29 ng/mL
CCCCCCCCC(CC)OC(=O)CCCCCCCN(CCCCCCCC(=O)OC(CCCCCCCC)CCCCCCCC)CCCn1nc(N)nc1N (centres unmarked) [Lipid 21]	−12.3 mV	0.277	83.3 nm	96.4%	6.5	0.00 ng/mL

Further lines, with some results ahead:

Zeta [1]	PDI [2]	Size [2]	EE [3]	pKa [4]	SMILES	hEPO (C57BL/6 female mice)
−2.0 mV	0.296	145.3 nm	97.2%	6.9	CCCCCCCCCCCOC(=O)CCCCCN(CCO)CCCCCCCOP(=O)(NCCCCCCCCC)OCCCCCCCCC (centres unmarked) [Lipid 7]	80.47 ng/mL
0.1 mV	0.399	68.8 nm	97.9%	5.1	CCCCCCCCCCCCCOC(=O)CCN(CCO)CCCCCCCC(=O)OC(CCCCCCCC)CCCCCCCC [Lipid 2]	0.00 ng/mL
−8.8 mV	0.267	65.8 nm	97.9%	5.1	CCCCCCCCCCCCCCOC(=O)CCN(CCO)CCCCCCCC(=O)OC(CCCCCCCC)CCCCCCCC [Lipid 1]	0.00 ng/mL
−1.0 mV	0.358	87.4 nm	95.3%	6.8	CCCCCCCCCCCOC(=O)CCCCCN(CCO)CCCCCCCNP(=O)(OCCCCCCCCC)OCCCCCCCCC [Lipid 5]	114.89 ng/mL
0.1 mV	0.302	134.7 nm	94.2%	7.0	CCCCCCCCCCCOC(=O)CCCCCN(CCO)CCCCCCCOP(=O)(NCCCCCCCC)OCCCCCCCC (centres unmarked) [Lipid 8]	93.09 ng/mL
−0.4 mV	0.227	132.7 nm	95.8%	6.9	CCCCCCCCCCCOC(=O)CCCCCN(CCO)CCCCCCCNP(=O)(OCCCCCCCC)OCCCCCCCC [Lipid 6]	304.28 ng/mL
−3.1 mV	0.106	78.70 nm	96.7%	7	CCCCCCCCCCCOC(=O)CCCCCN(CCO)CCCCCCCC(=O)OC(CCCCCCCC)CCCCCCCC [SM-102, heptadecan-9-yl 8-((2-hydroxyethyl)(6-oxo-6-(undecyloxy)hexyl)amino)octanoate, reference compound]	2457.05 ng/mL
